Results: US20260200926A1, “TREM2 MODULATORS” (Muna Therapeutics ApS, priority 2022, published 2026)

Columns and labels:
[1] = system: TREM2 regulated genes CXCL10, CCL2, CST7, and TMEM119; assay: Pharmacodynamics in hTREM2 knock-in mice: brain mRNA expression of TREM2 regulated genes by RT-qPCR; assay type: in vivo, humanized TREM2 knockin (hTREM2 KI) mice, C57BL/6 background; conditions: hTREM2 KI mice, oral gavage 50 mg/kg twice a day with a 10-hour interval, brains after 24 hours, RT-qPCR relative to GAPDH, normalized to vehicle
Procedure: Humanized TREM2 knockin (hTREM2 KI) mice were used for pharmacodynamics and pharmacokinetics studies. hTREM2 mice were generated by replacement of the mouse TREM2 gene that encodes the full-length protein by the human TREM2 gene in a C57BL/6 mouse strain background. Groups of 10 animals 8-10-week-old hTREM2 mice were treated via oral gavage administration with a TREM2 agonist compound at 50 mg/kg twice a day with a 10-hour interval. After 24 hours, mice were sacrificed and brains were isolated for RNA extraction used for reverse transcription to create complementary DNAs (cDNAs). The relative mRNA expression level of known TREM2 regulated genes were measured by quantitative reverse transcription polymerase chain reaction (RT-qPCR) relative to Glyceraldehyde-3-phosphate dehydrogenase (GAPDH) reference housekeeping gene. Expression of TREM2 regulated genes CXCL10, CCL2, CST7, and TMEM119 were measured as pharmacodynamic biomarkers after TREM2 agonist treatment normalized to vehicle control. These genes are known as microglial activation biomarkers and have previously been reported to respond to TREM2 antibody and small molecule agonist treatment in vivo.
Statistical Analyses. All graphs represent the mean of all samples in each group±SEM.
GraphPad Prism software was used to perform statistical analyses. P<0.05 was considered significant difference between vehicle and TREM2 small molecule treatment determined by T-test.
The relative expression levels for Compound 89A and vehicle were measured.

Human TREM2 = target: T1, Human TREM2 (Homo sapiens, UniProt Q9NZC2); assay: Human TREM2 activity: cellular phosphorylation of Syk (AlphaLISA SureFire Ultra p-SYK) in HEK293/DAP12+TREM2 stable cell line; assay type: cell-based; conditions: for Emax: HEK293, maximal response relative to reference agonist example 1B (remaining examples), read-out: Emax; for EC50: phospho-Syk AlphaLISA signal, HEK293/DAP12+TREM2 cells, concentration giving 50% of maximal response, read-out: EC50
T1 construct: expressed in transfected cells
T1 sequence (Q9NZC2 19-230): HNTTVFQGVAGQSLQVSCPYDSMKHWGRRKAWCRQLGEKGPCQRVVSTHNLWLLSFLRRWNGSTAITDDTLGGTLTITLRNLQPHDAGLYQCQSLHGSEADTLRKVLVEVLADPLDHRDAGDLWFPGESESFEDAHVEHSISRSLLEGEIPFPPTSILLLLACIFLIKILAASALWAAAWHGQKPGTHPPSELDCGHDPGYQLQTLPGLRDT
T1 sequence (O43914 22-113 partner): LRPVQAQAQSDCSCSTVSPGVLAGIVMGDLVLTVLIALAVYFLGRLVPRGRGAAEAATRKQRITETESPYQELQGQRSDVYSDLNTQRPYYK
Procedure, shortened: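 HEK293 cells stably co-expressing human TREM2 and DAP12 were seeded at 10,000 cells/well and used 20–24 h later. Compounds were tested at 8 concentrations (top 100 μM, 1:6 steps, 0.5% DMSO) for 30 min at 37 °C. Syk phosphorylation at Tyr525/526 was read in lysates by AlphaLISA SureFire Ultra.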

SMILES	brain expression level of CCL2 as compared to vehicle control [1] [fold]	brain expression level of CST7 as compared to vehicle control [1] [fold]	brain expression level of CXCL10 as compared to vehicle control [1]	brain expression level of TMEM119 as compared to vehicle control [1] [fold]	Emax (Human TREM2) [%]	EC50 (Human TREM2) [nM]
Cc1nc2c(-c3ccc(Cl)cc3F)nc(N3C[C@@H](c4cnn(C)c4)OC(C)(C)C3)nc2c(=O)n1C (single isomer, unassigned) [Example 89A]	1.7	3.25	about 2.5 fold	1.8	75 to 110	10 to 100
Cc1nc2c(-c3ccc(Cl)cc3F)cc(N3C[C@@H](c4cnn(C)c4)OC(C)(C)C3)nc2c(=O)n1C (single isomer, unassigned) [Example 142A]					< 75	100 to 1000
Cc1cc([C@H]2C[C@@H](c3cc4c(=O)n(C)c(C)nc4c(-c4ccc(F)cc4F)n3)C[C@@H](C)O2)ccn1 [Example 185]					75 to 110	1 to 10
Cc1nc2c(-c3ccc(Cl)cc3F)nc(N3CCO[C@@H](c4cnn(C5CC5)c4)C3)nc2c(=O)n1C (single isomer, unassigned) [Example 26B]					75 to 110	1 to 10
Cc1cc([C@H]2CN(c3cc4c(=O)n(C)c(C)nc4c(-c4ccc(Cl)cc4F)n3)CC3(CC3)O2)ccn1 (single isomer, unassigned) [Example 128B]					75 to 110	100 to 1000
Cc1nc2c(-c3ccc(Cl)cc3F)nc(N3CCOC(C)(C)C3)nc2c(=O)n1C [Example 57, 8-(4-chloro-2-fluorophenyl)-6-(2,2-dimethylmorpholino)-2,3-dimethylpyrimido[5,4-d]pyrimidin-4(3H)-one]					< 75	> 1000
Cc1nc2c(C34CC(C(F)(F)F)(C3)C4)nc(N3CCO[C@@H](c4cnn(C)c4)C3)nc2c(=O)n1C [Example 113, (S)-2,3-dimethyl-6-(2-(1-methyl-1H-pyrazol-4-yl)morpholino)-8-(3-(trifluoromethyl)bicyclo[1.1.1]pentan-1-yl)pyrimido[5,4-d]pyrimidin-4 (3H)-one]					75 to 110	1 to 10
Cc1nc2c(-c3ccc(C(F)(F)F)cc3F)nc(N3C[C@@H](c4cnn(C)c4)OC(C)(C)C3)nc2c(=O)n1C (single isomer, unassigned) [Example 100A]					75 to 110	10 to 100
Cc1cc([C@H]2CN(c3cc4c(=O)n(C)c(C)nc4c(-c4ccc(F)cc4F)n3)CC(F)(F)O2)ccn1 (single isomer, unassigned) [Example 171B]					< 75	100 to 1000
Cc1nc2c(-c3ccc(Cl)cc3F)nc(N3C[C@@H](C)O[C@@H](c4cnn(C5CC5)c4)C3)nc2c(=O)n1C (single isomer, unassigned) [Example 178B]					75 to 110	1 to 10
Cc1nc2c(-c3ccc(Cl)cc3F)nc(N3CC(c4cnn(C)c4)OC(F)(F)C3)nc2c(=O)n1C (centres unmarked) [Example 115, 8-(4-chloro-2-fluorophenyl)-6-(2,2-difluoro-6-(1-methyl-1H-pyrazol-4-yl)morpholino)-2,3-dimethylpyrimido[5,4-d]pyrimidin-4 (3H)-one]					75 to 110	1 to 10
Cc1cc([C@H]2C[C@@H](c3nc(-c4ccc(Cl)cc4F)c4nc(C)n(C)c(=O)c4n3)CCO2)ccn1 (single isomer, unassigned) [Example 94]					75 to 110	1 to 10
Cc1cc([C@@H]2CN(c3cc4c(=O)n(C)c(C)nc4c(-c4ccc(C(F)F)nc4)n3)CC(C)(C)O2)ccn1 (single isomer, unassigned) [Example 180A]					< 75	> 1000
Cc1cc([C@@H]2CN(c3cc4c(=O)n(C)c(C)nc4c(-c4ccc(F)cc4F)n3)CC(C)(C)O2)ccn1 (single isomer, unassigned) [Example 159A]					75 to 110	1 to 10
Cc1nc2c(-c3ccc(C(F)(F)F)nc3)nc(N3C[C@@H](c4cnn(C5CC5)c4)O[C@@H](C)C3)cc2c(=O)n1C (single isomer, unassigned) [Example 184A]					75 to 110	1 to 10
Cc1cc([C@H]2CN(c3cc4c(=O)n(C)c(C)nc4c(-c4ccc(Cl)cc4F)n3)CC(C)(C)O2)ccn1 (single isomer, unassigned) [Example 172B]					75 to 110	1 to 10
Cc1cc([C@@H]2CN(c3cc4c(=O)n(C)c(C)nc4c(-c4cc(F)c(F)cc4F)n3)CCO2)ccn1 (single isomer, unassigned) [Example 141A]					75 to 110	10 to 100
Cn1cc([C@H]2CN(c3nc(-c4ccc(Cl)cc4F)c4nc(C(F)(F)F)n(C)c(=O)c4n3)CCO2)cn1 (single isomer, unassigned) [Example 103]					75 to 110	1 to 10
Cn1cc([C@@H]2CN(c3nc(-c4ccc(F)cc4F)c4nc(C(F)(F)F)n(C)c(=O)c4n3)CC3(CC3)O2)cn1 (single isomer, unassigned) [Example 165A]					75 to 110	1 to 10
Cc1nc2c(-c3ccc(Cl)cc3F)nc(N3CCC(Oc4cnn(C)c4)CC3)nc2c(=O)n1C [Example 77, 8-(4-chloro-2-fluorophenyl)-2,3-dimethyl-6-(4-((1-methyl-1H-pyrazol-4-yl)oxy)piperidin-1-yl)pyrimido[5,4-d]pyrimidin-4 (3H)-one]					75 to 110	> 1000
Cc1nc2c(-c3ccc(Cl)cc3F)nc([C@@H]3C[C@H]3c3cnn(C)c3)cc2c(=O)n1C (single isomer, unassigned) [Example 148B]					< 75	> 1000
Cc1nc2c(-c3ccc(C(F)(F)F)nc3)nc(N3CCO[C@@H](c4cnn(C)c4)C3)nc2c(=O)n1C (single isomer, unassigned) [Example 28B]					75 to 110	10 to 100
C[C@H]1CN(c2nc(-c3ccc(F)cc3F)c3nc(C(F)(F)F)n(C)c(=O)c3n2)C[C@@H](c2cnn(C3CC3)c2)O1 (single isomer, unassigned) [Example 183A]					75 to 110	1 to 10
Cn1cc([C@@H]2CN(c3nc(-c4cc(F)c(F)cc4F)c4nc(C(F)(F)F)n(C)c(=O)c4n3)CC3(CC3)O2)cn1 (single isomer, unassigned) [Example 162A]					75 to 110	1 to 10
Cc1cc([C@@H]2CN(c3nc(-c4ccc(C(F)(F)F)cc4F)c4nc(C)n(C)c(=O)c4n3)CCO2)ccn1 (single isomer, unassigned) [Example 21A]					75 to 110	10 to 100
Cc1nc2c(-c3ccc(Cl)cc3F)nc(N3CC(c4cnn(C)c4)OC4(CC4)C3)c(F)c2c(=O)n1C (centres unmarked) [Example 157, 8-(4-chloro-2-fluorophenyl)-5-fluoro-2,3-dimethyl-6-(5-(1-methyl-1H-pyrazol-4-yl)-4-oxa-7-azaspiro[2.5]octan-7-yl)pyrido[3,4-d]pyrimidin-4 (3H)-one]					< 75	100 to 1000
Cc1nc2c(-c3ccc(Cl)cc3F)nc(N3CCOC(c4ncon4)C3)nc2c(=O)n1C (centres unmarked) [Example 58, 6-(2-(1,2,4-oxadiazol-3-yl)morpholino)-8-(4-chloro-2-fluorophenyl)-2,3-dimethylpyrimido[5,4-d]pyrimidin-4(3H)-one]					75 to 110	100 to 1000
Cc1nc2c(-c3ccc(Cl)cc3F)nc(N3CCOC(c4nccs4)C3)nc2c(=O)n1C (centres unmarked) [Example 48, 8-(4-chloro-2-fluorophenyl)-2,3-dimethyl-6-(2-(thiazol-2-yl)morpholino)pyrimido[5,4-d]pyrimidin-4(3H)-one]					< 75	10 to 100
Cc1nc2c(-c3ccc(Cl)cc3F)nc(N3CCOC(c4cnn(C)c4)C3)nc2c(=O)[nH]1 (centres unmarked) [Example 60, 8-(4-chloro-2-fluorophenyl)-2-methyl-6-(2-(1-methyl-1H-pyrazol-4-yl)morpholino)pyrimido[5,4-d]pyrimidin-4 (3H)-one]					< 75	100 to 1000
